Test results from patent US7128895B2, “Use of bile acid derivatives conjugated with metal ion chelated complexes for the diagnostic assessment of microvascular permeability” (Bracco Imaging S.p.A., priority 2000, dated 2006).
Entries after “also recorded” stand apart in the source; their conditions may differ.

Test: Urinary and faecal excretion screening of an intravenously administered contrast agent
Format: in vivo
Conditions: rats
Procedure: Experimental Model for the Urinary and Faecal Excretion Screening of an Intravenously Administered Contrast Agent
The experimentation is performed on 6 rats.
The rats are individually housed in metabolic cages and urine and faeces are collected daily, for 7 days after administration. In particular faeces and urine are collected at the following time periods: 0 to 24 h,and every 24 hours up to 7 days.
The animals are killed by decapitation at 7 days post-dosing and animals blood is collected in heparinised test tubes and then centrifuged for 15 min at 3500·g to separate the plasma. After bleeding, liver, spleen, femurs and kidneys are collected and weighted to evaluate residual content of Gd in the organs. Residual gadolinium concentration in the organic samples is determined by inductively-coupled plasma atomic emission spectrometry (ICP-AES) with a Jobin-Yvon Mod 24 spectrometer
Excretion Screening of Rats Injected with B22956/1.
The screening is performed using the contrast compound as 0.25M solution. The agent in intravenously injected in 6 rats with single doses of 0.1 and 1.0 mmol·kg^−1 of animal body weight.

[1] = 0.1 mmol·kg^-1 intravenous, 7 days
[2] = 1.0 mmol·kg^-1 intravenous, 0 to 7 days
[3] = 1.0 mmol·kg^-1 intravenous, within 24 h after injection

## gadolinium complex of the [3(S),5,12]-3-[[4-[bis[2-[bis(carboxymethyl)-amino]ethyl]amino]-4-carboxy-1-oxobutyl]amino]-12-hydroxycholan-24-oic acid [B22956/1]
0.1 mmol·kg^-1 intravenous
  cumulative urinary and faecal elimination within 7 days: 94 to 102 % of the ID
[1]
  average cumulative amount of gadolinium recovered in faeces: 88.2±7.9 % of the injected dose (ID)
  average cumulative amount of gadolinium recovered in urine: 9.0±3.7 % of the ID
0.1 mmol·kg^-1 intravenous, within 24 h after injection
  injected dose recovered in the faeces within 24 h: ~87 % of the injected dose
1.0 mmol·kg^-1 intravenous
  cumulative urinary and faecal elimination within 7 days: 89 to 92 % of the ID
[2]
  gadolinium recovered in faeces, cumulative amount: 39.7±1.4 % of the ID
  gadolinium recovered in urine, cumulative amount: 52.7 % of the ID
[3]
  injected dose recovered in the faeces within 24 h: about 37 % of ID
  injected dose recovered in the urine within 24 h: ~48 % of the injected dose
7 days after 0.1 or 1.0 mmol·kg^-1
  residual Gd in plasma, liver, spleen, femurs and kidneys: almost total absence of gadolinium residues; also recorded: very low or negligible
7 days after administration, plasma volume taken as 40 mL/Kg
  residual Gd in the plasma as fraction of injected dose: less than 0.04 % of the injected dose
7 days, both administered doses, ICP-AES detection limit
  residual content of Gd in plasma: < 0.05 μg gadolinium/mL
